What was measured:
articular cartilage = assay: Mouse model of knee osteoarthritis (DMM), intra-articular injection, Safranin-O/fast green staining and OARSI score; format: in vivo, C57BL/6 mice; conditions: 8 weeks after DMM surgery, once a week, 5 times
Source text: Male C57BL/6 mice (n=30) were purchased from Shanghai Slac laboratory animal Co., Ltd. and reared to 8 weeks of age. The animal experimental operation method was reviewed and approved by the Ethics Committee of Tongji University School of Medicine. Male C57BL/6 mice reared to 8 weeks of age were anaesthetized, and a longitudinal incision was made in the medial side of the knee joint. The articular cavity was opened along the medial side of the patellar ligament, the fat pad in the intercondylar area was bluntly separated, and the meniscus tibial ligament connecting the medial meniscus was found and transected. The incision was closed after hemostasis by compression, and the mice were continued to be fed. The mice were anesthetized and sacrificed at 4, 8 and 12 weeks after surgery (n=8 for each group), and the knee joints were isolated for histological examination, forming the treatment group. Male C57BL/6 mice reared to 8 weeks of age were anaesthetized, and a longitudinal incision was made in the medial side of the knee joint. […] The damage degree of articular cartilage was observed by Safranin-O/ fast green staining and quantitatively evaluated by OARSI score. […]

chondrocytes [1] = assay: Synthetic phenotype of IL-1β-stimulated mouse chondrocytes (whole-genome sequencing, q-PCR, western blot); format: cell-based
Method: (§1) Mouse chondrocytes were obtained from 7-day-old C57BL/6 mice (Shanghai Slac laboratory animal Co., Ltd.), and the procedure was as follows: under aseptic surgical conditions, bilateral knee cartilages of C57 mice were carefully stripped and digested with 0.2% neutral collagenase (Serva, Germany) for 8 h; cell precipitates were obtained by centrifugation, and the cells were resuspended in modified Eagle medium (DMEM) (Gibco, USA) containing 10% FBS, inoculated in culture dishes, and cultured with high-sugar DMEM medium (containing 10% FBS, 100 U/mL penicillin and 100 mg/L streptomycin) at 37° C. in a 5% CO2 constant temperature incubator. The medium was changed for the first time at 48 h. […] The cells were collected by centrifugation and resuspended, and the concentration was adjusted for inoculation in culture dishes. The cells were subcultured by the above method, and the obtained cells were labeled as P1, P2, P3 generations, etc.
(2) Real-Time Fluorescent Quantitative PCR (Real Time q-PCR) Analysis • 1) The P1 generation mouse chondrocytes cultured in Embodiment 1 were used, the culture medium was sucked out from the culture dish, and the cells were washed once with PBS. • 2) Extraction of total RNA • 1. chloroform (⅕ volume of RNAiso Plus) was added to the homogenate lysate, the cover of the centrifuge tube was closed tightly, and the centrifuge tube was shaken violently by hand for 15 seconds. […]
P1 generation mouse chondrocytes cultured in Embodiment 1 were subjected to western blot analysis through operations including the following: • 1. […] The protein concentration was determined by the BCA Protein Quantification Kit. […]

chondrocytes [2] = assay: Catabolic phenotype of IL-1β-stimulated mouse chondrocytes (whole-genome sequencing, q-PCR, western blot); format: cell-based
Method: as §1
(2) Real-Time Fluorescent Quantitative PCR (Real Time q-PCR) Analysis • 1) The P1 generation mouse chondrocytes cultured in Embodiment 1 were used, the culture medium was sucked out from the culture dish, and the cells were washed once with PBS. • 2) Extraction of total RNA • 1. chloroform (⅕ volume of RNAiso Plus) was added to the homogenate lysate, the cover of the centrifuge tube was closed tightly, and the centrifuge tube was shaken violently by hand for 15 seconds. After the solution is fully emulsified (without phase separation phenomenon), the centrifuge tube was allowed to stand at room temperature for 5 minutes. • 2. the centrifuge tube was centrifuged at 12000 g under 4° C. for 5 minutes. • 3. the centrifuge tube was carefully taken out from the centrifugal machine, at this time the homogenate was divided into three layers: a colorless supernatant, a white protein layer in the middle, and a lower organic phase with color. […] Precipitate usually occurs at the bottom of a test tube after centrifugation.
On ice, SYBR Premix Ex Taq, upstream and downstream primers of catabolic and synthetic genes of chondrocytes, ROX Reference Dye, cDNA template and dH2O were added into a test tube. After being mixed evenly, the mixture was evenly divided into PCR tubes. The PCR tubes were placed in a Q-PCR instrument to detect the product.
P1 generation mouse chondrocytes cultured in Embodiment 1 were subjected to western blot analysis through operations including the following: • 1. Collecting of protein samples: The culture medium was sucked out, and the cells were washed twice with PBS at 4° C. and then dried. 100 μl of cell lysate was added to each well, the cells were lysed on ice for 10 min, and collected into a 1.5 ml centrifuge tube. […] The protein concentration was determined by the BCA Protein Quantification Kit. […]

COC(=O)CCC(=O)C(=O)OC [α-KG, dimethyl-α-ketoglutarate]
OARSI score, damage degree of articular cartilage (articular cartilage): significantly inhibit the progression of osteoarthritis
cartilage damage / progression of osteoarthritis (Safranin O/fast green histology) (articular cartilage; DMM+αKG group vs DMM group): no significant cartilage damage
expressions of chondrocyte synthetic genes SOX9, COL2A1, ACAN (chondrocytes [1]; q-PCR, 10 ng/ml IL-1β + 7 mM α-KG): promote the expressions
protein expressions of chondrocyte synthetic genes SOX9 and COL2A (chondrocytes [1]; western blot, 6 h, 12 h, 24 h, 36 h, 10 ng/ml IL-1β + 7 mM α-KG): promote the protein expressions
expressions of synthetic phenotypic genes (SOX9, COL2A1, ACAN, COL9A1, COL9A2, COL9A3, COL11A1, COL11A2) of chondrocytes (chondrocytes [1]; whole-genome sequencing, 24 h, 10 ng/ml IL-1β + 7 mM α-KG vs IL-1β group): increased
gene and protein expressions of catabolic phenotypic genes MMP3, MMP13, ADAMTS5, NOS2 at different time periods (chondrocytes [2]; q-PCR and western blot, 6 h, 12 h, 24 h, 36 h, 10 ng/ml IL-1β + 7 mM α-KG): could inhibit the gene and protein expressions
expression of cartilage catabolic phenotypic genes MMP3, MMP13, ADAMTS5, NOS2 (chondrocytes [2]; q-PCR, 24 h, 10 ng/ml IL-1β + 7 mM α-KG): inhibit the expression
protein expression of cartilage catabolic phenotypic genes MMP3, MMP13, ADAMTS5, NOS2 (chondrocytes [2]; western blot, 24 h, 10 ng/ml IL-1β + 7 mM α-KG): inhibited the protein expression
expressions of catabolic phenotypes (metalloproteases MMP2, MMP3, MMP8, MMP9, MMP12, MMP13, MMP27; aggrecanases ADAMTS5, 7, 12, 15, 16, 17; NOS2) of chondrocytes (chondrocytes [2]; whole-genome sequencing, 10 ng/ml IL-1β + 7 mM α-KG vs IL-1β group): suppressed
